Test results as given in PMC3838870 (Journal of inorganic biochemistry, 2013).
Where two headings read alike, the source gives them in different places.

How the values were obtained:
[1] = tested on: chloroquine-sensitive (3D7) Plasmodium falciparum; assay: Parasite growth inhibition, [3H]-hypoxanthine incorporation, 3D7; type: cell-based
[2] = tested on: chloroquine-resistant (7G8) Plasmodium falciparum; conditions: read-out: Growth inhibition efficacy (IC50), 7G8 P. falciparum; chloroquine-resistant 7G8, mean ± SD (n = 6); previously reported; cited from earlier work
[3] = tested on: human erythrocytes; assay: Chelator-induced erythrocyte hemolysis; type: cell-based; conditions: control 0.0175± 0.0005
[4] = tested on: non-parasitized human erythrocytes; assay: Effect of chelators on erythrocyte shape; type: cell-based; conditions: 2.5–15 μM chelator, 48 h, Giemsa staining
[5] = tested on: synchronized chloroquine-sensitive P. falciparum (3D7); assay: Stage-specific parasite growth; type: cell-based, Plasmodium falciparum; conditions: chelator 7.5 μM, 3D7 synchronized at ring-stage
[6] = Chelator-induced erythrocyte hemolysis; type: cell-based, human; conditions: human, human erythrocyte suspension, pH 7.4
[7] = tested on: chloroquine-sensitive (3D7) Plasmodium falciparum; conditions: read-out: IC50, 3D7 malaria strain; cited from earlier work

Row | SMILES | IC50 ([1]; read-out: Growth inhibition efficacy (IC50), 3D7 P. falciparum, chloroquine-sensitive 3D7, 48 h culture, mean ± SD (n = 6)) | IC50 [2] | Supernatant hemoglobin, % MCHC (hemolysis) ([3]; chelator 0.5 μM) | Supernatant hemoglobin, % MCHC (hemolysis) ([3]; chelator 1 μM) | Supernatant hemoglobin, % MCHC (hemolysis) ([3]; chelator 1.5 μM) | Supernatant hemoglobin, % MCHC (hemolysis) ([3]; chelator 2 μM) | Supernatant hemoglobin, % MCHC (hemolysis) ([3]; chelator 3 μM) | Effect on erythrocyte shape [4] | % Inhibition, rings, 24 hour culture [5] | IC50 ([1]; Plasmodium falciparum, 3D7, 48 h, read-out: Growth inhibition efficacy (IC50), 3D7 P. falciparum) | IC50 ([1]; Plasmodium falciparum, 3D7, 48 h, read-out: Growth inhibition efficacy (IC50), 3D7 P. falciparum, chloroquine-sensitive 3D7, 48 h culture, mean ± SD (n = 6)) | hemolysis at 10 μM [6] | hemolysis at 20 μM [6] | hemolysis at 30 μM [6] | hemolysis at 45 μM [6] | hemolysis at 60 μM [6] | IC50 [7] | hemolysis at 15 μM [6] | hemolysis at 25 μM [6]
1 | O=C(NN=Cc1c(O)ccc2ccccc12)c1ccncc1 [compound 311, 2-hydroxy-1-naphthylaldehyde isonicotinoyl hydrazone] | 4.45 ± 1.7 µM | 4.46 ± 0.3 µM | 0.0193±0.0005 % MCHC | 0.0195±0.0010 % MCHC | 0.0200±0.0006 % MCHC | 0.0203±0.0005 % MCHC | 0.0197±0.0005 % MCHC | no apparent effect on erythrocyte shape | 99 ± 8.4% |  |  |  |  |  |  |  |  |  | 
2 | CC(=O)N(O)CCCCCNC(=O)CCC(=O)N(O)CCCCCNC(=O)CCC(=O)N(O)CCCCCN [DFO, desferrioxamine] |  | 18.5 µM |  |  |  |  |  |  |  | 23.4 ± 3.4 µM | 23.5 µM | 0.0193 ± 0.0005% | 0.0182 ± 0.0005% | 0.0186 ± 0.0008% | 0.0192 ± 0.0001% | 0.0182 ± 0.0002% |  |  | 
3 | Cc1ncc(CO)c(/C=N/NC(=O)c2ccncc2)c1O [PIH, pyridoxal isonicotinoyl hydrazone] |  |  |  |  |  |  |  |  |  |  |  | 0.0195 ± 0.0004% | 0.019 ± 0.0006% | 0.0192 ± 0.0008% |  |  | 50 µM | 0.0188 ± 0.0003% | 0.0193 ± 0.0004%
